System: NHACs
Experiment: calcium flux assay
Assay type: cell-based, human
Settings: Homo sapiens; for Emax: read-out: (A) % Efficacy
Procedure, shortened: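 Normal human articular chondrocytes plated at 2000 cells/well and loaded 24 h later with Calcium 5 dye in HBSS/HEPES with 5 mM probenecid for 1 h at room temperature. Test compound added at indicated dose; fluorescence (ex 470–495/em 515–575 nm) recorded on FLIPR before and after addition.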

| EC50 [µM] | SMILES | Emax [%] |
| --- | --- | --- |
| 28 | O=C(Nc1ccc(Cl)c(Cl)c1)[C@H]1[C@@H]2O[C@@H](C[C@H]2F)[C@@H]1c1ccnc(F)c1 [Example 112, (1S,2R,3S,4S,6R)—N-(3,4-dichlorophenyl)-6-fluoro-3-(2-fluoropyridin-4-yl)-7-oxabicyclo[2.2.1]heptane-2-carboxamide] | 99 |
| > 50 | CN[C@@H]1C[C@H]2O[C@@H]1[C@H](c1ccnc(F)c1)[C@H]2C(=O)Nc1cnc(Cl)c(Cl)c1 [Example 174, (1R,2R,3S,4R,5R)—N-(5,6-dichloropyridin-3-yl)-3-(2-fluoropyridin-4-yl)-5-(methylamino)-7-oxabicyclo[2.2.1]heptane-2-carboxamide] | 37 |
| > 50 | Cc1cc([C@H]2[C@H]3O[C@H](C[C@H]3N[C@H]3C[C@H](O)C3)[C@@H]2C(=O)Nc2ccc(Cl)c(Cl)c2)ccn1 [Example 170, (1R,2R,3S,4R,5R)—N-(3,4-dichlorophenyl)-5-(((1r,3R)-3-hydroxycyclobutyl)amino)-3-(2-methylpyridin-4-yl)-7-oxabicyclo[2.2.1]heptane-2-carboxamide] | 37 |
| > 50 | Cc1cc([C@H]2[C@H]3O[C@H]([C@H](O)[C@@H]3O)[C@@H]2C(=O)Nc2ccnc(C(F)(F)F)c2)ccn1 [Example 161, (1S,2R,3S,4R,5S,6R)-5,6-dihydroxy-3-(2-methylpyridin-4-yl)-N-(2-(trifluoromethyl)pyridin-4-yl)-7-oxabicyclo[2.2.1]heptane-2-carboxamide] | 29 |
| > 50 | Cc1cc([C@H]2[C@H]3O[C@H]([C@H](O)[C@@H]3O)[C@@H]2C(=O)Nc2cccc(C(F)(F)F)c2)ccn1 [Example 158, (1S,2R,3S,4R,5S,6R)-5,6-dihydroxy-3-(2-methylpyridin-4-yl)-N-(3-(trifluoromethyl)phenyl)-7-oxabicyclo[2.2.1]heptane-2-carboxamide] | 31 |
| > 50 | COc1ccc(NC(=O)[C@H]2[C@@H]3O[C@@H]([C@H]4C[C@H]43)[C@@H]2c2ccnc(F)c2F)cn1 [Example 127, (1S,2S,4R,5R,6R,7S)-7-(2,3-difluoropyridin-4-yl)-N-(6-methoxypyridin-3-yl)-8-oxatricyclo[3.2.1.0^2,4]octane-6-carboxamide] | 62 |
| 33 | Cc1ccc([C@H]2[C@H]3O[C@H](C[C@@H]3F)[C@@H]2C(=O)Nc2ccc(Cl)c(Cl)c2)cn1 [Example 115, (1R,2R,3S,4R,5S)—N-(3,4-dichlorophenyl)-5-fluoro-3-(6-methylpyridin-3-yl)-7-oxabicyclo[2.2.1]heptane-2-carboxamide] | 49 |
| 28 | Cc1cc([C@H]2[C@H]3O[C@H](C[C@@H]3F)[C@@H]2C(=O)Nc2cnc(Cl)c(Cl)c2)ccn1 [Example 109, (1R,2R,3S,4R,5S)—N-(5,6-dichloropyridin-3-yl)-5-fluoro-3-(2-methylpyridin-4-yl)-7-oxabicyclo[2.2.1]heptane-2-carboxamide] | 164 |
| 25 | O=C(Nc1ccc(Cl)c(Cl)c1)[C@H]1[C@@H]2O[C@@H]([C@H]3C[C@H]32)[C@@H]1c1ccnc(F)c1F (single isomer, unassigned) [Example 122a] | 160 |
| 27 | O=C(Nc1ccc(Cl)c(Cl)c1)[C@@H]1[C@@H](c2ccnc(F)c2)[C@H]2O[C@@H]1C[C@H]2NCCO [Example 173, (1R,2R,3S,4R,5R)—N-(3,4-dichlorophenyl)-3-(2-fluoropyridin-4-yl)-5-((2-hydroxyethyl)amino)-7-oxabicyclo[2.2.1]heptane-2-carboxamide] | 54 |
| 25 | O=C(Nc1ccc(Cl)c(Cl)c1)[C@H]1[C@@H]2O[C@@H]([C@H]3C[C@H]32)[C@@H]1c1ccnc(F)c1 [Example 119, (1S,2S,4R,5R,6R,7S)—N-(3,4-dichlorophenyl)-7-(2-fluoropyridin-4-yl)-8-oxatricyclo[3.2.1.0^2,4]octane-6-carboxamide] | 149 |
| 17 | O=C(Nc1ccc(Cl)c(Cl)c1)[C@@H]1[C@@H](c2ccnc(C(F)(F)F)c2)[C@H]2O[C@@H]1C[C@@H]2O (racemic) [Example 145, rac-(1R,2R,3S,4R,5S)—N-(3,4-dichlorophenyl)-5-hydroxy-3-(2-(trifluoromethyl)pyridin-4-yl)-7-oxabicyclo[2.2.1]heptane-2-carboxamide] | 246 |
| > 50 | COc1ccc(NC(=O)[C@@H]2[C@@H](c3ccnc(C)c3)[C@H]3O[C@@H]2C[C@H]3F)cn1 [Example 97, (1R,2R,3S,4R,5R)-5-fluoro-N-(6-methoxypyridin-3-yl)-3-(2-methylpyridin-4-yl)-7-oxabicyclo[2.2.1]heptane-2-carboxamide] | 2 |

More lines, now with the values behind:

| SMILES | EC50 [µM] | Emax [%] |
| --- | --- | --- |
| O=C(Nc1cnc(Cl)c(Cl)c1)[C@@H]1[C@@H]2O[C@@H]([C@H]3C[C@H]32)[C@@H]1c1ccnc(F)c1F [Example 32, (1S,2S,4R,5R,6S,7S)—N-(5,6-dichloropyridin-3-yl)-7-(2,3-difluoropyridin-4-yl)-8-oxatricyclo[3.2.1.0^2,4]octane-6-carboxamide] | 13 | 143 |
| O=C(Nc1cnc(Cl)c(Cl)c1)[C@@H]1[C@@H](c2ccnc(F)c2)[C@H]2O[C@@H]1C[C@@H]2O (racemic) [Example 90, rac-(1R,2R,3S,4R,5S)—N-(5,6-dichloropyridin-3-yl)-3-(2-fluoropyridin-4-yl)-5-hydroxy-7-oxabicyclo[2.2.1]heptane-2-carboxamide] | > 50 | 45 |
| Cc1cc([C@H]2[C@H]3O[C@H](C[C@@H]3O)[C@@H]2C(=O)Nc2cccc(C(F)(F)F)c2)ccn1 [Example 85, (1R,2R,3S,4R,5S)-5-hydroxy-3-(2-methylpyridin-4-yl)-N-(3-(trifluoromethyl)phenyl)-7-oxabicyclo[2.2.1]heptane-2-carboxamide] | > 50 | 56 |
| COc1cc([C@H]2[C@H]3O[C@H]([C@@H]4C[C@@H]43)[C@@H]2C(=O)Nc2cnc(Cl)c(Cl)c2)ccn1 [Example 76, (1S,2S,4R,5R,6R,7S)—N-(5,6-dichloropyridin-3-yl)-7-(2-methoxypyridin-4-yl)-8-oxatricyclo[3.2.1.0^2,4]octane-6-carboxamide] | 5.8 | 123 |
| O=C(Nc1ccc(Cl)c(Cl)c1)[C@H]1[C@H]2O[C@H]([C@@H]3C[C@@H]32)[C@H]1c1cncnc1 (single isomer, unassigned) [Example 28] | 23 | 167 |
| Cc1cc([C@H]2[C@H]3O[C@H]([C@@H]4C[C@@H]43)[C@@H]2C(=O)Nc2ccc(Cl)cc2C#N)ccn1 [Example 67, (1S,2S,4R,5R,6R,7S)—N-(4-chloro-2-cyanophenyl)-7-(2-methylpyridin-4-yl)-8-oxatricyclo[3.2.1.0^2,4]octane-6-carboxamide] | > 50 | 39 |
| Cc1cc([C@@H]2[C@@H]3O[C@@H]([C@H]4C[C@H]43)[C@@H]2C(=O)Nc2cnc(Cl)c(Cl)c2)ccn1 (single isomer, unassigned) [Example 46] | > 50 | 0 |
| O=C(Nc1ccc(Cl)c(Cl)c1)[C@H]1[C@@H](c2cc(F)ncc2F)[C@H]2O[C@@H]1C[C@@H]2O [Example 58, (1R,2S,3S,4R,5S)—N-(3,4-dichlorophenyl)-3-(2,5-difluoropyridin-4-yl)-5-hydroxy-7-oxabicyclo[2.2.1]heptane-2-carboxamide] | > 50 | 0 |
| Cc1cc([C@H]2[C@H]3O[C@H]([C@@H]4C[C@@H]43)[C@@H]2C(=O)Nc2ccc(Cl)c(F)c2)ccn1 [Example 68, (1S,2S,4R,5R,6R,7S)—N-(4-chloro-3-fluorophenyl)-7-(2-methylpyridin-4-yl)-8-oxatricyclo[3.2.1.0^2,4]octane-6-carboxamide] | 15 | 306 |
| Cc1cc([C@@H]2[C@@H]3O[C@@H]([C@H]4C[C@H]43)[C@@H]2C(=O)Nc2ccc(Cl)c(Cl)c2)ccn1 (single isomer, unassigned) [Example 23b] | > 50 | 0 |
| O=C(Nc1cnc(Cl)c(Cl)c1)[C@@H]1[C@@H]2O[C@@H]([C@H]3C[C@H]32)[C@@H]1c1ccncc1 (racemic) [Example 43, rac-(1S,2S,4R,5R,6S,7S)—N-(5,6-dichloropyridin-3-yl)-7-(pyridin-4-yl)-8-oxatricyclo[3.2.1.0^2,4]octane-6-carboxamide] | > 50 | 168 |
| COc1cc([C@H]2[C@H]3O[C@H]([C@@H]4C[C@@H]43)[C@H]2C(=O)Nc2cnc(Cl)c(Cl)c2)ccn1 [Example 1, (1S,2S,4R,5R,6S,7S)—N-(5,6-dichloropyridin-3-yl)-7-(2-methoxypyridin-4-yl)-8-oxatricyclo[3.2.1.0^2,4]octane-6-carboxamide] | 3.4 | 164 |
| Nc1cc([C@H]2[C@H]3O[C@H](C[C@@H]3O)[C@H]2C(=O)Nc2ccc(Cl)c(Cl)c2)ccn1 [Example 57, (1R,2S,3S,4R,5S)-3-(2-aminopyridin-4-yl)-N-(3,4-dichlorophenyl)-5-hydroxy-7-oxabicyclo[2.2.1]heptane-2-carboxamide] | > 50 | 56 |
| COc1cc([C@H]2[C@H]3O[C@H]([C@@H]4C[C@@H]43)[C@H]2C(=O)Nc2ccc(Cl)c(Cl)c2)ccn1 [Example 24, (1S,2S,4R,5R,6S,7S)-N-(3,4-dichlorophenyl)-7-(2-methoxypyridin-4-yl)-8-oxatricyclo[3.2.1.0^2,4]octane-6-carboxamide] | 11 | 71 |
| Cc1cc([C@H]2[C@H]3O[C@H](C[C@H]3F)[C@H]2C(=O)Nc2cccc(C(F)(F)F)c2)ccn1 [Example 15, (1R,2S,3S,4R,5R)-5-fluoro-3-(2-methylpyridin-4-yl)-N-[3-(trifluoromethyl)phenyl]-7-oxabicyclo[2.2.1]heptane-2-carboxamide] | > 50 | 0 |
| O=C(Nc1ccc(Cl)c(Cl)c1)[C@@H]1[C@@H]2O[C@@H]([C@H]3C[C@H]32)[C@@H]1c1ccncc1 [Example 44, (1S,2S,4R,5R,6S,7S)—N-(3,4-dichlorophenyl)-7-(pyridin-4-yl)-8-oxatricyclo[3.2.1.0^2,4]octane-6-carboxamide] | > 50 | 0 |

From patent publication US12209096B2, “Compounds and compositions for inducing chondrogenesis” (NOVARTIS AG, priority 2017, dated 2025)
